From ChEMBL document CHEMBL5223152, “Recent advances toward the development of Hsp90 C-terminal inhibitors” (Bioorg Med Chem Lett, 2023) come the findings set out here.

Structures are written as SMILES.

Assay [1] relates to SK-BR-3. Briefly: Antiproliferative activity against human SK-BR-3 cells assessed as inhibition of cell proliferation. The class given is functional, cell-based.
In the next assay the test system is UACC-62. Briefly: Antiproliferative activity against human UACC-62 cells assessed as inhibition of cell growth. The class given is functional.
Assay [2] deals with NCI-H1299. Briefly: Antiproliferative activity against human NCI-H1299 cells assessed as reduction in cell viability incubated for 2 to 3 days by MTT assay. The class given is functional, cell-based.
The subject of assay [3] is MCF7. Briefly: Antiproliferative activity against human MCF7 cells assessed as inhibition of cell proliferation incubated for 72 hrs by MTS assay. The class given is functional, cell-based. Conditions: MCF7, 72 h.
Assay [4] concerns NCI-H1299. Briefly: Antiproliferative activity against human NCI-H1299 cells assessed as inhibition of cell growth. The class given is functional, cell-based.
The subject of assay [5] is SK-BR-3. Briefly: Antiproliferative activity against human SK-BR-3 cells assessed as inhibition of cell proliferation incubated for 72 hrs by MTS proliferation assay. The class given is functional, cell-based. Conditions: SK-BR-3, 72 h. (In general: Formazan colour is commonly taken as a measure of viable cells.)
In assay [6] the target is T1, Heat shock protein HSP 90-alpha (Homo sapiens, UniProt P07900). Briefly: Inhibition of recombinant GST-tagged HSP90alpha NTD (9 to 236 residues) (unknown origin) ATPase activity expressed in Escherichia coli BL21 (DE3).
Another assay addresses Heat shock protein HSP90 (Homo sapiens, UniProt P07900+P08238). Briefly: Binding affinity to NT-647 labelled recombinant HSP90 (unknown origin) C-terminal domain assessed as dissociation constant by microscale thermophoresis analysis. The class given is protein assay. In general terms: In MST a laser heats a spot of the sample, and binding alters the fluorescence response.

Assay [7] deals with T1, Heat shock protein HSP 90-alpha. Briefly: Binding affinity to human recombinant HSP90alpha C-terminal domain (563 to 732 residues) expressed in Escherichia coli BL21(DE3) cells assessed as dissociation constant incubated for 15 mins by microscale thermophoresis analysis.
A further assay concerns K562. Briefly: Antiproliferative activity against BCR-ABL1 positive human K562 cells assessed as inhibition of cell growth incubated for 72 hrs by ATP-based celltiter Glo assay. The class given is functional. Particulars: K562, 72 h.
A further assay has as its system UMSCC22B. Briefly: Antiproliferative activity against human UMSCC22B cells assessed as inhibition of orosphere formation incubated for 10 to 14 days by light microscopic analysis. The class given is functional, cell-based.
The next assay deals with MDA-MB-231. Briefly: Antiproliferative activity against human MDA-MB-231 cells assessed as inhibition of cell growth incubated for 48 to 72 hrs by MTS assay. The class given is functional, cell-based.
Assay [8] concerns NCI-H1299. Briefly: Antiproliferative activity against human NCI-H1299 cells assessed as inhibition of cell growth incubated for 3 days by MTT assay. The class given is functional, cell-based. Conditions: NCI-H1299, 72 h.
In assay [9] the target is T1, Heat shock protein HSP 90-alpha. Briefly: Binding affinity to recombinant human HSP90alpha assessed as dissociation constant measured for 300 secs by SPR analysis. (In SPR one partner is held on a chip, and binding of the other changes the refractive index at the surface.)
Assay [10] deals with NCI-H1299. Briefly: Antiproliferative activity against human NCI-H1299 cells assessed as reduction in cell viability incubated for 5 days by MTT assay. The class given is functional, cell-based. Particulars: NCI-H1299, 120 h.
Assay [11] addresses Heat shock protein HSP 90-beta (Homo sapiens, UniProt P08238). Briefly: Binding affinity to recombinant HSP90beta (unknown origin) assessed as dissociation constant incubated for 30 mins by intrinsic fluorescence based spectroscopic analysis.
A short description of assay [12]: Antiproliferative activity against human LNCap-LN3 cells assessed as inhibition of cell growth incubated for 24 hrs by CellTiter-glo luminescence assay. The class given is functional, cell-based. Conditions: LNCaP-LN3, 24 h.
Assay [13] concerns the target T1, Heat shock protein HSP 90-alpha. Briefly: Binding affinity to recombinant HSP90alpha (unknown origin) assessed as dissociation constant incubated for 30 mins by intrinsic fluorescence based spectroscopic analysis.
A further assay relates to HCT-116. Briefly: Antiproliferative activity against human HCT-116 cells assessed as reduction in cell viability incubated for 72 hrs by MTT assay. The class given is functional, cell-based. Particulars: HCT-116, 72 h.
In a further assay the test system is Jurkat. Briefly: Antiproliferative activity against human jurkat cells assessed as reduction in cell viability incubated for 48 hrs by MTT assay. The class given is functional, cell-based.
The next assay has as its system SK-N-MC. Briefly: Antiproliferative activity against human SK-N-MC cells assessed as inhibition of cell proliferation by MTS assay. The class given is functional, cell-based.
In assay [14] the test system is MCF7. Briefly: Antiproliferative activity against human MCF7 cells assessed as inhibition of cell proliferation by MTS assay. The class given is functional, cell-based.

Heat shock protein HSP 90-beta, sequence (P08238 whole entry): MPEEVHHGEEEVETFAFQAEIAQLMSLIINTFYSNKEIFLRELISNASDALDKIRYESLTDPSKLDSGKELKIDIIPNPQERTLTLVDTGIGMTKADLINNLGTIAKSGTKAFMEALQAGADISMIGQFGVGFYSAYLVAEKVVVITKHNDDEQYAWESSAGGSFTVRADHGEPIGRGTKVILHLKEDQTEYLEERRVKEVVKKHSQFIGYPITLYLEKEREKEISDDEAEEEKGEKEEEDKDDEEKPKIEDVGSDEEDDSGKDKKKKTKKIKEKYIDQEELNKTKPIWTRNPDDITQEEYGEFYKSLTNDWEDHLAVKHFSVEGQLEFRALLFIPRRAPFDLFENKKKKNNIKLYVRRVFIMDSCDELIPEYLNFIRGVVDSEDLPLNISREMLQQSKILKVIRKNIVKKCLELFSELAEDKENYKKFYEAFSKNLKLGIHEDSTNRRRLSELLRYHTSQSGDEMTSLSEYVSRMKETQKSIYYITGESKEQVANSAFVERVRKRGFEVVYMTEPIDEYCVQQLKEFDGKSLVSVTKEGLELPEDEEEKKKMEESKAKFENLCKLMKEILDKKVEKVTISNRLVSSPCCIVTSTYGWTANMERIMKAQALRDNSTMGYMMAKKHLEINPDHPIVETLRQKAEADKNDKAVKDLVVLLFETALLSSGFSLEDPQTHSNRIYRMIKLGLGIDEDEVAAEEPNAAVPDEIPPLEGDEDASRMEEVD

In general, IC50 refers to the concentration that inhibits the measured activity by half. For the compound `COc1cccc(-c2cc(C(=O)Nc3ccc(/C=C/c4ccc(OC5CCN(C)CC5)cc4)cc3)ccc2OC)c1`, the IC50 in the assay with SK-BR-3 [1] stood at 0.68 µM.

As for `COc1cccc(-c2cc(NC(=O)Nc3cc4ccc(OC5CCN(C)CC5)c(C)c4oc3=O)ccc2C)c1`, the IC50 in the assay on UACC-62 was 0.36 µM.

For the compound `Cc1ccc(Cn2cc(C(=O)Nc3ccc(/C=C/c4ccc(OC5CCN(C)CC5)cc4)cc3)nn2)cc1`, in the assay with SK-BR-3 [1], the concentration for half-maximal inhibition (IC50) turned out to be 0.099 µM.

On to `COc1cc(NC(=O)c2ccc3c(c2OC)C=CC(C)(C)O3)ccc1OCCc1ccncc1`, for which the IC50 in the assay on NCI-H1299 [2] worked out at 0.23 µM.

Turning to `Cc1ccc(Cl)c(OCC2(O)CCN(Cc3ccc(OCCN4CCOCC4)cc3)CC2)c1`, the IC50 in the assay on MCF7 [3] amounted to 31.8 µM.

Regarding `COc1cc2nccc(C(OC(=O)C3CC3)c3ccc4c(c3OC)C=CC(C)(C)O4)c2cc1OC` (stereo not given), the IC50 with NCI-H1299 [4] (Homo sapiens, NCI-H1299, read-out: IC50) came out at 1 µM.

As for `COc1cc(NC(=O)c2ccc3c(c2OC)C=CC(C)(C)O3)ccc1OCCC1CCCCN1` (stereo not given), the concentration for half-maximal inhibition (IC50) in the assay with SK-BR-3 [5] came out at 2 µM.

`CC(C)(C)CC(C)(C)NCC(O)COc1ccc(C(C)(C)c2ccc(OCC(O)CNC(C)(C)CC(C)(C)C)cc2)cc1` (stereo not given): in assay [6], the IC50 is 119 µM.

In general, Kd refers to a measure of binding affinity in units of concentration. `CC[C@@H](C)[C@@H](ONC(=O)[C@H](ONC(=O)[C@@H](Cc1ccccc1)ONC(=O)[C@@H](Cc1ccccc1)ONC(=O)OCc1ccccc1)[C@H](C)CC)C(=O)NO[C@H](CC(C)C)C(=O)NO[C@H](CC(C)C)C(N)=O`: the Kd on Heat shock protein HSP90 came to 27.4 µM.

`CCC(C)n1c(C(=O)NC2CN=C(C(=O)NC)N(CC(C)C)C2=O)ncc(NC(=O)c2ncc(NC(=O)c3ccccc3)c(=O)n2Cc2ccc(OC)cc2)c1=O` (stereo not given): the Kd in assay [7] is 3.42 µM. In addition, the concentration for half-maximal inhibition (IC50) with K562 turned out to be 1.3 µM.

For the compound `Cc1c(OC2CCN(C)CC2)ccc2cc(NC(=S)Nc3cccc(Cl)c3)c(=O)oc12`, the IC50 in the assay on UMSCC22B was found to be 20 µM.

`COc1cccc(-c2cccc(NC(=O)Nc3cc4ccc(OC5CCN(C)CC5)c(C)c4oc3=O)c2)c1`: the 50% inhibitory concentration (IC50) in the assay with UMSCC22B was 1 µM.

For the compound `COc1cc2nccc(C(OC(=O)C3CC3)c3ccc4c(c3)C=CC(C)(C)O4)c2cc1OC` (stereo not given), in the assay with MDA-MB-231, the IC50 was 5 µM.

Turning to `COc1cc2nccc(C(OC(C)=O)c3ccc4c(c3OC)C=CC(C)(C)O4)c2cc1OC` (stereo not given), in the assay on NCI-H1299 [8], the IC50 came out at 1 µM.

Regarding `COc1ccc(CC(=O)c2ccc3c(c2OC)C=CC(C)(C)O3)cc1OC`, the IC50 with NCI-H1299 [4] turned out to be 0.14 µM.

Regarding `COc1ccc(NCC(=O)Nc2ncc(Cc3ccc(Cl)c(Cl)c3)s2)cc1`, the dissociation constant (Kd) in assay [9] was 0.0209 µM.

What is called EC50 is the concentration needed to bring the measured effect to its halfway point. Take `COc1cc(NC(=O)c2ccc3c(c2OC)C=CC(C)(C)O3)ccc1OCCc1cccnc1`: the 50% effective concentration (EC50) in the assay on NCI-H1299 [10] was 0.23 µM.

Take `Cc1c(OCCC2CCCCN2)ccc2cc(NC(=O)Nc3ccc(Cl)cc3)c(=O)oc12` (stereo not given): the Kd worked out at 726 µM in assay [11] and 191 µM in [13]. For the same compound, the half-inhibitory concentration (IC50) in assay [12] was 2 µM.

For the compound `COc1ccc2c(c1OC)O[C@]13C(=O)N4O[C@H]5[C@H](O)C=C[C@@H](Cl)[C@@]5(O)C[C@@]4(SS[C@H]21)C(=O)N3C`, the IC50 in the assay with HCT-116 worked out at 0.33 µM.

`CCOC(=O)C1=C(C)N(c2ccccc2)C(=O)NC1c1cc(O)ccc1Br` (stereo not given): the 50% inhibitory concentration (IC50) in the assay on Jurkat stood at 15.2 µM.

Turning to `Nc1c(C(=O)c2ccc(-c3ccc(Br)cc3)cc2)sc2nc3c(c(-c4ccccc4)c12)CNCC3`, the IC50 in the assay on SK-N-MC worked out at 2.8 µM; in the assay on MCF7 [14] it was 1.4 µM.
